Data as given in PubChem BioAssay (NCI).
“And” between values parts separate entries of the source, which are not always exact repeats. Identical values can stand only once.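 Briefly, cells in 96-well plates were exposed to five compound concentrations for 48 h, and endpoints were estimated by linear interpolation. The concentration for 50% growth inhibition is given as GI50. TGI marks complete inhibition of growth.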

Experiments:
Assay in all cases: inhibition of tumour cell growth, NCI panel, 48 h
MALME-3M melanoma = tested on: MALME-3M melanoma
SNB-75 CNS = tested on: SNB-75 CNS
NCI-H522 lung = tested on: NCI-H522 lung
HCT-15 colon = tested on: HCT-15 colon
SR leukemia = tested on: SR leukemia
HS 578T breast = tested on: HS 578T breast
COLO 205 colon = tested on: COLO 205 colon
UACC-62 melanoma = tested on: UACC-62 melanoma
A549 NSCLC = tested on: A549 NSCLC
SF-539 CNS = tested on: SF-539 CNS

| SMILES | GI50 (MALME-3M melanoma) | TGI (MALME-3M melanoma) | GI50 (SNB-75 CNS) | TGI (SNB-75 CNS) | GI50 (NCI-H522 lung) | TGI (NCI-H522 lung) | GI50 (HCT-15 colon) | TGI (HCT-15 colon) | GI50 (SR leukemia) [µM] | TGI (SR leukemia) | GI50 (HS 578T breast) | TGI (HS 578T breast) | GI50 (COLO 205 colon) | TGI (COLO 205 colon) | GI50 (UACC-62 melanoma) | TGI (UACC-62 melanoma) | GI50 (A549 NSCLC) | TGI (A549 NSCLC) | GI50 (SF-539 CNS) | TGI (SF-539 CNS) |
| --- | --- | --- | --- | --- | --- | --- | --- | --- | --- | --- | --- | --- | --- | --- | --- | --- | --- | --- | --- | --- |
| CN(C)c1ccc(/C=C\c2cccc[n+]2C)cc1 | 15.6 µM | > 100 µM | 6.26 µM | 49.5 µM | 10.2 µM | > 100 µM | 92.8 µM | > 100 µM | 24.8 | > 100 µM | 16.2 µM | > 100 µM | 1.22 µM | 2.81 µM | 19.8 µM | 58 µM | 1.73 µM | > 100 µM | 12.3 µM | > 100 µM |
| C=CC(=O)N1CCN(c2ccc3cccc(NC(=O)c4cnc(C)cn4)c3n2)CC1 | 2.89 µM | 15.9 µM | 0.565 µM | 9.66 µM | 1.99 µM | 17.8 µM | 2.08 µM | 24.6 µM | 0.838 | 12.7 µM | 2.28 µM | 26.3 µM | 6.26 µM | 30 µM | 2.46 µM | 15.6 µM | 3.77 µM | > 100 µM | 3.16 µM | 15.3 µM |
| O=[N+]([O-])c1cccc(-c2nc3sccn3c2-c2ccnc(NCCCNS(=O)(=O)c3cccc(F)c3)n2)c1 | 2.14 µM | 7.06 µM | 1.52 µM | 4.24 µM | 2.02 µM | 7.97 µM | 2.3 µM | 12.3 µM | 3.1 | > 100 µM | 4.73 µM | 47.3 µM | 2.46 µM | 8.11 µM | 1.16 µM | 4.26 µM | 2.68 µM | 24.3 µM | 4.04 µM | 20.8 µM |
| CC(=O)NC1=C(OS(=O)(=O)c2ccc(C)cc2)CN(C)C1=O | – | 6.21 µM | – | 15.1 µM | – | 9.74 µM | – | 13.2 µM | – | > 100 µM | – | > 42.2 µM | – | 25.3 µM | – | 21.2 µM | – | 15.3 µM | – | 5.84 µM |
| CC(C)(C)c1ccc(OCCCCCCN2CCNCC2)cc1 | 3.27 µM | 13.1 µM | 3.12 µM | 16 µM | 13.6 µM | 31.7 µM | 3.04 µM | 10 µM | 2.04 | 5.85 µM | 6.15 µM | 25.1 µM | 1.95 µM | 4.09 µM | 2.33 µM | 5.77 µM | 6.95 µM | 21.2 µM | 5.98 µM | 20.6 µM |
| C=C1CC[C@@H]2[C@](C)(COC(C)=O)[C@@H](O)CC[C@@]2(C)[C@@H]1COc1ccc2ccc(=O)oc2c1 | > 100 µM | > 100 µM | 17.6 µM | > 100 µM | > 100 µM | > 100 µM | > 100 µM | > 100 µM | 87.4 | > 100 µM | 29.9 µM | > 100 µM | – | – | > 100 µM | > 100 µM | > 100 µM | > 100 µM | 53.3 µM | > 100 µM |
| CC(C)(C)c1n[nH]c(=S)n(/N=C/c2ccc(F)c(Oc3ccccc3)c2)c1=O | 28.5 µM | 91.5 µM | 32.5 µM | > 100 µM | > 100 µM | > 100 µM | 37.7 µM | > 100 µM | > 100 | > 100 µM | 31.4 µM | 85.8 µM | 38.6 µM | > 100 µM | 38.2 µM | > 100 µM | 33.9 µM | > 100 µM | 43.7 µM | > 100 µM |
| Cc1ccc(C(=O)Nc2cccc(C(F)(F)F)c2)cc1Nc1nc(-c2cccnc2)nc2c1cnn2C | 0.482 µM and 0.262 µM | 2.77 µM and 1.5 µM | 2.83 µM and 2.17 µM | 11.1 µM and 6.05 µM | 4.68 µM and 1.37 µM | 27.3 µM and 5.09 µM | 2.65 µM and 1.63 µM | 4.94 µM | 0.822 | 6.58 µM | 1.94 µM and 1.41 µM | 7.14 µM and 4.91 µM | 1.22 µM and 0.575 µM | 5.79 µM and 3.65 µM | 0.628 µM and 0.335 µM | 5.37 µM and 4.25 µM | 3.2 µM and 2.11 µM | 16.1 µM and > 10 µM | 2.59 µM and 1.22 µM | 13.3 µM and 3.28 µM |
| C/C(=N\Nc1ccc2ccccc2n1)c1ccccn1 | 0.0756 µM | 2.15 µM | 0.123 µM | 17.6 µM | – | 0.21 µM | – | 5.72 µM | < 0.0335 | 2.38 µM | 1.94 µM | 30.5 µM | < 0.0195 µM | 2.7 µM | 0.104 µM | 0.652 µM | 0.0841 µM | 11.1 µM | 0.0768 µM | 0.487 µM |
| COc1cc2nc(N3CCCC3)nc(NCC3CCCCC3)c2cc1OC | 1.24 µM | 2.55 µM | 1.47 µM | 2.81 µM | 1.56 µM | 3.29 µM | 0.505 µM | 1.8 µM | 0.254 | 1.08 µM | 1.79 µM | 3.71 µM | 0.223 µM | 0.499 µM | 1.74 µM | 3.21 µM | 1.52 µM | 3.25 µM | 0.817 µM | 2.15 µM |
| COc1cccc(NC(=O)c2sc3nc4c(cc3c2N)CN(Cc2ccccc2)CC4)c1 | 1.43 µM | 16.6 µM | 1.73 µM | 4.71 µM | 15.1 µM | > 100 µM | 0.93 µM | > 100 µM | 0.453 | 47.7 µM | 2.14 µM | 23 µM | 7.55 µM | 54.5 µM | 1.92 µM | 29.8 µM | 3.79 µM | 53.8 µM | 1.99 µM | 6.56 µM |
| CS(=O)(=O)c1ccc(C(=O)Nc2ccc(Cl)c(-c3ccccn3)c2)c(Cl)c1 | 41.9 µM and 5.24 µM | > 100 µM and 31.6 µM | 14.4 µM and 3.14 µM | > 100 µM and 79 µM | – | > 94 µM and 9.43 µM | – | > 100 µM and 21.2 µM | – | > 100 µM and 20.9 µM | – | > 100 µM | – | – | – | – | – | > 100 µM and 21.2 µM | – | > 100 µM and 13.7 µM |
| CC(CN1CCN(CCOCCO)CC1)CN1c2ccccc2Sc2ccc(Cl)cc21 (centres undefined) | 1.75 µM | 3.45 µM | – | – | 1.71 µM | 3.36 µM | 1.85 µM | 3.76 µM | 3.58 | 16.5 µM | 3.44 µM | 20.1 µM | 1.69 µM | 3.18 µM | 1.75 µM | 3.44 µM | 3.05 µM | 12.4 µM | 2.52 µM | 6.94 µM |
